tested on: serotonin; experiment: not given; details: literature; versus known serotonin antagonists; cited from earlier work

| Compound | antiserotonin action compared with known serotonin antagonists |
| --- | --- |
| COc1ccc(CCN(C)CCCC(C#N)(c2ccc(OC)c(OC)c2)C(C)C)cc1OC (stereo not shown) [Verapamil] | not very pronounced |
| COc1ccc(CCN(C)CCCC(C#N)(c2cc(OC)c(OC)c(OC)c2)C(C)C)cc1OC (stereo not shown) [Gallopamil, reference compound] | not very pronounced |

tested on: serotonin-induced increase in blood pressure; experiment: inhibition of the serotonin-induced increase in blood pressure in the pithed rat on intravenous administration; type: in vivo, male Sprague-Dawley rats; details: at dose 0.0464 mg/kg
From the text: Pithing is effected by means of a rod through the orbit. […] The criterium for effectiveness of a substance is the relative inhibition (Δ%) of the serotonin-induced increase in blood pressure (ΔmmHg). The valuation was effected quantitatively as an analysis of the linear regression (y=a+b x) of log dose (mg/kg) and relative inhibition (Δ%) of the serotonin-induced increase in blood pressure.

| Compound | relative inhibition (Δ%) of the serotonin-induced increase in blood pressure [%] |
| --- | --- |
| COc1cc(CCN(C)CCCC(C#N)(c2ccc(Cl)cc2)C(C)C)cc(OC)c1 (stereo not shown) [Example 42, 5-[(3,5-dimethoxyphenethyl)-methylamino]-2-(4-chlorophenyl)-2-isopropylvaleronitrile] | 19 |

same assay, conditions: at dose 0.1 mg/kg

| Compound | relative inhibition (Δ%) of the serotonin-induced increase in blood pressure [%] |
| --- | --- |
| COc1ccc(CCN(C)CCCC(C#N)(c2cc(OC)c(OC)c(OC)c2)C(C)C)cc1OC (stereo not shown) [Gallopamil, reference compound] | 22 |

same assay, conditions: serotonin 0.0215 mg/kg i.v., linear regression of log dose and relative inhibition

| Compound | ED 50% (dose which inhibits the serotonin-induced increase in blood pressure by 50%) [mg/kg] |
| --- | --- |
| 5-[(3,5-dimethoxyphenethyl)-methylamino]-2-(β,β,β-trifluoroethoxyphenyl)-2-isopropylvaleronitrile [Example 30] | 0.1 |

same assay, conditions: serotonin 0.0215 mg/kg i.v., linear regression of log dose and relative inhibition, read-out: ED 50% (dose which inhibits the serotonin-induced increase in blood pressure by 50%)

| Compound | ED50 [mg/kg] |
| --- | --- |
| CCOc1cc(CCN(C)CCCC(C#N)(c2cc(OC)cc(OC)c2)C(C)C)cc(OCC)c1 (stereo not shown) [Example 19, 5-[(3,5-diethoxyphenethyl)-methylamino]-2-(3,5-dimethoxyphenyl)-2-isopropylvaleronitrile] | 0.1 |
| COc1cc(CCN(C)CCCC(C#N)(c2ccc(Cl)c(Cl)c2)C(C)C)cc(OC)c1 (stereo not shown) [Example 41, 5-[(3,5-dimethoxyphenethyl)-methylamino]-2-(3,4-dichlorophenyl)-2-isopropylvaleronitrile] | 0.1 |
| CCOc1cccc(C(C#N)(CCCN(C)CCc2ccc(OC)c(OC)c2)C(C)C)c1 (stereo not shown) [Example 44, 5-[(3,4-dimethoxyphenethyl)-methylamino]-2-(3-ethoxy-phenyl)-2-isopropylvaleronitrile] | 0.0464 |
| COc1cc(C(C#N)(CCCN(C)CCc2ccccc2)C(C)C)cc(OC)c1OC (stereo not shown) [Example 60, 5-[(phenethyl)-methylamino]-2-(3,4,5-trimethoxyphenyl)-2-isopropylvaleronitrile] | 0.0464 |
| CCOc1cc(CCN(C)CCCC(C#N)(c2ccccc2)C(C)C)cc(OCC)c1 (stereo not shown) [Example 24, 5-[(3,5-diethoxyphenethyl)-methylamino]-2-phenyl-2-isopropylvaleronitrile] | 0.1 |
| COc1ccc(C(C#N)(CCCN(C)CCc2ccc(Cl)c(Cl)c2)C(C)C)cc1OC (stereo not shown) [Example 40, 5-[(3,4-dichlorophenethyl)-methylamino]-2-(3,4-dimethoxyphenyl)-2-isopropylvaleronitrile] | 0.1 |
| COc1cccc(CCN(C)CCC[C@@](C#N)(c2ccc(OC)c(OC)c2)C(C)C)c1 [Example 58, (S)-5-[(3-methoxyphenethyl)-methylamino]-2-(3,4-dimethoxyphenyl)-2-isopropylvaleronitrile] | 0.0201 |
| COc1cc(OC)cc(C(C#N)(CCCN(C)CCc2ccccc2)C(C)C)c1 (stereo not shown) [Example 5, 5-[(Phenethyl)methylamino]-2-(3,5-dimethoxyphenyl)-2-isopropylvaleronitrile] | 0.0464 |
| COc1cc(CCN(C)CCCC(C#N)(c2ccccc2)C(C)C)cc(OC)c1 (stereo not shown) [Example 14, 5-[(3,5-dimethoxyphenethyl)-methylamino]-2-phenyl-2-isopropylvaleronitrile] | 0.0464 |
| COc1cc(CCN(C)CCCC(C#N)(C(C)C)C2CCc3ccccc3C2)cc(OC)c1 (stereo not shown) [Example 43, 5-[(3,5-dimethoxyphenethyl)-methylamino]-2-(1,2,3,4-tetrahydronaphth-2-yl)-2-isopropylvaleronitrile] | 0.215 |
| COc1cc(C(C#N)(CCCN(C)CCc2cccc(C(F)(F)F)c2)C(C)C)cc(OC)c1OC (stereo not shown) [Example 61, 5-[(3-trifluoromethylphenethyl)-methylamino]-2-(3,4,5-trimethoxyphenyl)-2-isopropylvaleronitrile] | 0.0681 |
| COc1cccc(CCN(C)CCCC(C#N)(c2ccccc2)C(C)C)c1 (stereo not shown) [Example 13, 5-[(3-methoxyphenethyl)-methylamino]-2-phenyl-2-isopropylvaleronitrile] | 0.0464 |
| COc1cccc(CCN(C)CCCC(C#N)(c2cc(OC)c(OC)c(OC)c2)C(C)C)c1 (stereo not shown) [Example 36, 5-[(3-methoxyphenethyl)-methylamino]-2-(3,4,5-trimethoxyphenyl)-2-isopropylvaleronitrile] | 0.0464 |
| CCOc1cccc(C(C#N)(CCCN(C)CCc2cc(OC)cc(OC)c2)C(C)C)c1 (stereo not shown) [Example 17, 5-[(3,5-dimethoxyphenethyl)-methylamino]-2-(3-ethoxy-phenyl)-2-isopropylvaleronitrile] | 0.1 |
| COc1cccc(C(C#N)(CCCN(C)CCc2ccccc2)C(C)C)c1 (stereo not shown) [Example 3, 5-[(Phenethyl)-methylamino]-2-(3-methoxyphenyl)-2-isopropylvaleronitrile] | 0.0464 |
| COc1cc(C(C#N)(CCCN(C)CCc2cccc([N+](=O)[O-])c2)C(C)C)cc(OC)c1OC (stereo not shown) [Example 37, 5-[(3-nitrophenethyl)-methylamino]-2-(3,4,5-trimethoxyphenyl)-2-isopropylvaleronitrile] | 0.0464 |

| Compound | ED50 [mg/kg] |
| --- | --- |
| COc1cc(CCN(C)CCCC(C#N)(c2cccc(OC)c2)C(C)C)cc(OC)c1 (stereo not shown) [Example 1, 5-[(3,5-Dimethoxyphenethyl)-methylamino]-2-(3-methoxyphenyl)-2-isopropylvaleronitrile] | 0.0464 |
| COc1cccc(CCN(C)CCCC(C#N)(c2cc(OC)cc(OC)c2)C(C)C)c1 (stereo not shown) [Example 2, 5-[(3-Methoxyphenethyl)-methylamino]-2-(3,5-dimethoxyphenyl)-2-isopropylvaleronitrile] | 0.073 |
| COc1cccc(CCN(C)CCCC(C#N)(c2ccc(OC)c(OC)c2)C(C)C)c1 (racemic) [Example 57, (RS)-5-[(3-methoxyphenethyl)-methylamino]-2-(3,4-dimethoxyphenyl)-2-isopropylvaleronitrile] | 0.0423 |
| COc1cc(OC)cc(C(C#N)(CCCN(C)CCc2ccc3c(c2)OCO3)C(C)C)c1 (stereo not shown) [Example 27, 5-[(3,4-methylenedioxyphenethyl)-methylamino]-2-(3,5-dimethoxyphenyl)-2-isopropylvaleronitrile] | 0.0464 |
| COc1cc(CCN(C)CCCC(C#N)(c2cc(OC)cc(OC)c2)C(C)C)cc(OC)c1 (stereo not shown) [Example 59, 5-[(3,5-dimethoxyphenethyl)-methylamino]-2-(3,5-dimethoxyphenyl)-2-isopropylvaleronitrile] | 0.0464 |
| COc1cc(OC)cc(C(C#N)(CCCN(C)CCc2ccc(C)c(C)c2)C(C)C)c1 (stereo not shown) [Example 20, 5-[(3,4-xylylethyl)-methylamino]-2-(3,5-dimethoxyphenyl)-2-isopropylvaleronitrile] | 0.1 |
| C=CCC(C#N)(CCCN(C)CCc1ccccc1)c1cccc(Cl)c1 (stereo not shown) [Example 31, 5-[(phenethyl)-methylamino]-2-(3-chlorophenyl)-2-allylvaleronitrile] | 0.464 |
| COc1cc(C(C#N)(CCCN(C)CCc2cccc(Cl)c2)C(C)C)cc(OC)c1OC (stereo not shown) [Example 38, 5-[(3-chlorophenethyl)-methylamino]-2-(3,4,5-trimethoxyphenyl)-2-isopropylvaleronitrile] | 0.0681 |
| C=CCC(C#N)(CCCN(C)CCc1cccc(OC)c1)c1cccc(Cl)c1 (stereo not shown) [Example 32, 5-[(3-methoxyphenethyl)-methylamino]-2-(3-chlorophenyl)-2-allylvaleronitrile] | 0.316 |
| COc1cccc(CCN(C)CCCC(C#N)(c2cccc(OC)c2)C(C)C)c1 (stereo not shown) [Example 4, 5-[(3-Methoxyphenethyl)-methylamino]-2-(3-methoxy-phenyl)-2-isopropylvaleronitrile] | 0.0318 |
| COc1ccc(CCN(C)CCCC(C#N)(c2cc(OC)c(OC)c(OC)c2)C(C)C)cc1OC (stereo not shown) [Gallopamil, reference compound] | 0.1 |
| COc1cc(CCN(C)CCCC(C#N)(c2ccc(Cl)cc2)C(C)C)cc(OC)c1 (stereo not shown) [Example 42, 5-[(3,5-dimethoxyphenethyl)-methylamino]-2-(4-chlorophenyl)-2-isopropylvaleronitrile] | > 0.0464 |
| COc1cc(C(C#N)(CCCN(C)CCc2ccc3c(c2)COCO3)C(C)C)cc(OC)c1OC (stereo not shown) [Example 39, 5-[(1,3-benzodioxan-6-ylethyl)-methylamino]-2-(3,4,5-trimethoxyphenyl)-2-isopropylvaleronitrile] | 0.0395 |
| COc1cc(OC)cc(C(C#N)(CCCN(C)CCc2ccc(Cl)c(Cl)c2)C(C)C)c1 (stereo not shown) [Example 7, 5-[(3,4-Dichlorophenethyl)-methylamino]-2-(3,5-dimethoxyphenyl)-2-isopropylvaleronitrile] | 0.1 |
| COc1cc(OC)cc(C(C#N)(CCCN(C)CCc2ccc(Cl)cc2)C(C)C)c1 (stereo not shown) [Example 6, 5-[(4-Chlorophenethyl)-methylamino]-2-(3,5-dimethoxyphenyl)-2-isopropylvaleronitrile] | 0.1 |
| COc1cc(OC)cc(C(C#N)(CCCN(C)CCc2cccc(C(F)(F)F)c2)C(C)C)c1 (stereo not shown) [Example 8, 5-[(3-Trifluoromethylphenethyl)-methylamino]-2-(3,5-dimethoxyphenyl)-2-isopropylvaleronitrile] | 0.0499 |

From patent US4968717A, “Phenylacetonitriles which are substituted by basic groups, their preparation and drugs containing these substances” (BASF Aktiengesellschaft, priority 1986, dated 1990)
